According to ChEMBL document CHEMBL4052619, “First example of peptides targeting the dimer interface of Leishmania infantum trypanothione reductase with potent in vitro antileishmanial activity” (Eur J Med Chem, 2017):
Active and inactive are the calls of the source. No cut-off for these calls is given here. Bridge positions count the residues as written; N and C are the ends. Square brackets hold non-standard residues; d marks the D form. Peptide text beside a SMILES is read from it. ξ: configuration not given here. ξNle = CCCCC(N)C(=O)O

Experiments:
Trypanothione reductase [1] = biological target: T1, Trypanothione reductase (Leishmania infantum, UniProt A4HSF7); experiment: Inhibition of recombinant Leishmania infantum TryR preincubated for 10 mins followed by T[S]2 substrate addition and measured after 1 hr in presence of NADPH
Trypanothione reductase [2] = biological target: T1, Trypanothione reductase; experiment: Inhibition of recombinant His/FLAG-tagged Leishmania infantum TryR dimerization assessed as dimer disruption after 1 hr by ELISA
[3] = Stability assessed as Tritirachium album proteinase K- mediated compound degradation by measuring half life at 100 uM by HPLC method; assay type: ADME; details: parengyodontium album
Leishmania infantum [4] = experiment: Antileishmanial activity against Leishmania infantum axenic amastigotes assessed as induction of cell death at 25 uM after 24 hrs by propidium iodide staining based flow cytometry; assay type: functional
Leishmania infantum [5] = experiment: Antileishmanial activity against Leishmania infantum MCAN/ES/89/IPZ229/1/89 promastigotes assessed as induction of cell death at 25 uM after 24 hrs by propidium iodide staining based flow cytometry; assay type: functional
Leishmania infantum [6] = experiment: Drug localization in Leishmania infantum MCAN/ES/89/IPZ229/1/89 promastigotes flagellum after 4 hrs by fluorescence microscopic method; assay type: ADME; details: in vivo
Leishmania infantum [7] = experiment: Drug localization in Leishmania infantum MCAN/ES/89/IPZ229/1/89 promastigotes after 24 hrs by fluorescence microscopic method; assay type: ADME; details: in vivo

T1 sequence (A4HSF7 whole entry): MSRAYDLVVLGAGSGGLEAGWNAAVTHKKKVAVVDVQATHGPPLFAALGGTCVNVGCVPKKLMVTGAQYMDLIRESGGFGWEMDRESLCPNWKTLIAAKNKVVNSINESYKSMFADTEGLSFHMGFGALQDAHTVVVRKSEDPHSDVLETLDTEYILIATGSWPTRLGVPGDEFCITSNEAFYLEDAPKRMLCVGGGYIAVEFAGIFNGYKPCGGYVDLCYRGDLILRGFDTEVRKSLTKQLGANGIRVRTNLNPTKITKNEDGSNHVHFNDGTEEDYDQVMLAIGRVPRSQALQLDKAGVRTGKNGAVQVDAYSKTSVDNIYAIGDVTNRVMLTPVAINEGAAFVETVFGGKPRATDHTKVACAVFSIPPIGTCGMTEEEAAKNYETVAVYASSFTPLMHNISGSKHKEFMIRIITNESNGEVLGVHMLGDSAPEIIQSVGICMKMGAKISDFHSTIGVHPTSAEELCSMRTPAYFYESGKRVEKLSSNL

| Structure (SMILES) | IC50 (Trypanothione reductase [1]) | IC50 (Trypanothione reductase [2]) | half-life at 100 µM [3] | Activity (Leishmania infantum [4]) | Activity (Leishmania infantum [5]) | Drug uptake (Leishmania infantum [6]) | Drug uptake (Leishmania infantum [7]) |
| --- | --- | --- | --- | --- | --- | --- | --- |
| CCCCC(NC(=O)[C@H](CCCCN)NC(=O)C(CCCC)NC(=O)[C@H](CO)NC(=O)[C@@H](NC(=O)CNC(=O)[C@@H](NC(=O)[C@H](CO)NC(=O)[C@H](CCC(N)=O)NC(=O)[C@@H](NC(=O)[C@@H](NC(=O)[C@H](CCCCN)NC(=O)[C@@H]1CCCN1C(C)=O)[C@@H](C)CC)[C@@H](C)CC)C(C)C)[C@@H](C)CC)C(N)=O (stereo partly specified) | 1.2 µM | 13.5 µM | 23 min | inactive | inactive | – | – |
| CCCCC(NC(=O)[C@H](CCCCN)NC(=O)C(CCCC)NC(=O)[C@H](CO)NC(=O)[C@@H](NC(=O)[C@@H]1CCCCNC(=O)CC[C@H](NC(=O)[C@@H](NC(=O)[C@H](CCCCN)NC(=O)[C@@H]2CCCN2C(C)=O)[C@@H](C)CC)C(=O)N[C@@H](CCC(N)=O)C(=O)NC(CO)C(=O)N[C@@H](C(C)C)C(=O)N1)[C@@H](C)CC)C(N)=O (single isomer, unassigned) | 5.3 µM | 14.4 µM | 64 min | inactive | inactive | – | – |
| CCCCC(NC(=O)[C@H](CCCCN)NC(=O)C(CCCC)NC(=O)[C@H](CO)NC(=O)[C@@H](NC(=O)CNC(=O)[C@@H](NC(=O)[C@H](CO)NC(=O)[C@H](CCC(N)=O)NC(=O)[C@@H](NC(=O)[C@@H](NC(=O)[C@H](CCCCN)NC(=O)[C@@H]1CCCN1C(=O)COCCOCCNC(=S)Nc1ccc(-c2c3ccc(=O)cc-3oc3cc(O)ccc23)c(C(=O)O)c1)[C@@H](C)CC)[C@@H](C)CC)C(C)C)[C@@H](C)CC)C(=O)N[C@H](CCCNC(=N)N)NC(=O)[C@H](CCCNC(=N)N)NC(=O)[C@H](CCCNC(=N)N)NC(=O)[C@H](CCCNC(=N)N)NC(=O)[C@H](CCCNC(=N)N)NC(=O)[C@H](CCCNC(=N)N)NC(=O)[C@H](CCCNC(=N)N)NC(=O)[C@H](CCCNC(=N)N)NC(=O)[C@@H](N)CCCNC(=N)N (stereo partly specified) | – | – | – | – | – | Active | Active |
| CCCCC(NC(=O)[C@@H]1CCCCNC(=O)CC[C@H](NC(=O)[C@@H](NC(=O)[C@H](CO)NC(=O)[C@H](CCC(N)=O)NC(=O)[C@@H](NC(=O)[C@@H](NC(=O)[C@H](CCCCN)NC(=O)[C@@H]2CCCN2C(C)=O)[C@@H](C)CC)[C@@H](C)CC)C(C)C)C(=O)N[C@@H]([C@@H](C)CC)C(=O)N[C@@H](CO)C(=O)NC(CCCC)C(=O)N1)C(N)=O (stereo partly specified) | 27 µM | 12.1 µM | – | inactive | inactive | – | – |
| CCCCC(NC(=O)[C@H](CCCCN)NC(=O)C(CCCC)NC(=O)[C@H](CO)NC(=O)[C@@H](NC(=O)CNC(=O)[C@@H]1CCCCNC(=O)CC[C@H](NC(=O)[C@H](CCCCN)NC(=O)[C@@H]2CCCN2C(C)=O)C(=O)N[C@@H]([C@@H](C)CC)C(=O)N[C@@H](CCC(N)=O)C(=O)N[C@@H](CO)C(=O)N1)[C@@H](C)CC)C(N)=O (stereo partly specified) (Ac-PKEIQSKGIS[ξNle]K[ξNle]-NH2; lactam 3-7) | 0.9 µM | 9.9 µM | 52 min | inactive | inactive | – | – |
